Measurements from patent US20040191287A1, “Fumigation process for stored food grains” (priority 2003, published 2004).
Where two headings read alike, the source gives them in different places.

Columns and labels:
rat = conditions: cited from earlier work
[1] = test system: S. oryzae mixed-age cultures; experiment: Mixed-age cultures exposed to allyl acetate in desiccators (Example 3); assay type: in vivo; conditions: Sitophilus oryzae, read-out: Mortality (%) (Mean ± SD); for mortality at 25 µg/mL: 25 mg/liter; for mortality at 50 µg/mL: 50 mg/liter; for mortality at 100 µg/mL: 100 mg/liter; for mortality at 150 µg/mL: 150 mg/liter
Method: (§1) The grain/ flour containing mixed- age culture of the insect was weighted into 15 cm diameter paper plates in 50 gm aliquots and kept in 0.85 litre desiccators. A 9 cm size Whatman No.1 filter circle was placed in each desiccator to act as evaporating surface for allyl acetate when injected. The insects were exposed to 4 doses of allyl acetate i.e., 25, 50, 100 and 150 mg/liter. Allyl acetate was drawn from the bottle using 100 and 250 micro liter liquid syringes and injected into the desiccators, so that the liquid falls on the filter circle inside the desiccator. There were three replicates each for each dose and for each exposure period. […] Insects emerged from wheat (S. oryzae and R. dominica) or survived in wheat flour (T. castaneum) samples were checked at weekly intervals for 8 weeks. Similarly, counts were made in untreated control batches. Mortality in treated batches was determined by taking into account of survival/emergence in controls as 100%. […] For example, allyl acetate at 25 mg/litre with 48-hour exposure caused 99.8% kill in R. dominica whereas, 85.1 and 86.5% mortality was recorded, respectively, in S. oryzae and T. castaneum.

[2] = test system: T. castaneum mixed-age cultures; experiment: as above; assay type: in vivo; conditions: Tribolium castaneum, read-out: Mortality (%) (Mean ± SD); for mortality at 25 µg/mL: 25 mg/liter; for mortality at 50 µg/mL: 50 mg/liter; for mortality at 100 µg/mL: 100 mg/liter; for mortality at 150 µg/mL: 150 mg/liter
Method: as §1

[3] = test system: R. dominica mixed-age cultures; experiment: as above; assay type: in vivo; conditions: Rhyzopertha dominica, read-out: Mortality (%) (Mean ± SD); for mortality at 25 µg/mL: 25 mg/liter; for mortality at 50 µg/mL: 50 mg/liter; for mortality at 100 µg/mL: 100 mg/liter; for mortality at 150 µg/mL: 150 mg/liter
Method: as §1

Rhyzopertha dominica [4] = experiment: LD 50 / LD 99 of allyl acetate to adults, probit analysis (Example 2); assay type: in vivo; conditions: R. dominica adults, 24-hour exposure at 26 ± 2° C.
Method: (§2) Assays with allyl acetate against the adults of four species of stored grain insects namely S. oryzae, R. dominica, T. castaneum and Cryptolestes sp. were carried out to determine LD 50 and LD 99 doses. […] Cryptolestes sp. was reared on wheat feed. […] The insects were exposed to different doses of allyl acetate for 24 hour in 0.85-liter desiccators to yield 20-100% mortality. There were 6 replicates for each dose along with equal number of untreated control. […] Mortality of treated insects was assessed at the end of 14 days and it was corrected for natural control mortality. The data for the individual species were subjected to probit analysis following the method of Finney (1971) to arrive at LD 50 and LD 99 values.

Sitophilus oryzae [5] = experiment: as above; assay type: in vivo; conditions: S. oryzae adults, 24-hour exposure at 26 ± 2° C.
Method: as §2

Tribolium castaneum [6] = experiment: as above; assay type: in vivo; conditions: T. castaneum adults, 24-hour exposure at 26 ± 2° C.
Method: as §2

Rhyzopertha dominica [7] = experiment: whole plant or invertebrate
Method: (§3) Cryptolestes sp. was reared on wheat feed. S. oryzae, Cryptolestes sp. and T. castaneum cultures were maintained at 25±1° C. and 70% RH whereas R. dominica cultures were maintained at 30±1° C. and 70% RH. From the established cultures, 2-week-old adults were taken and counted into 10 cm×2.3 cm size test tubes at 50 per replicate. The mouth of the tube was closed with a cloth piece held by small rubber ring. The insects were exposed to a range of doses (10 to 100 mg/litre) of esters for 24 hours in 0.85-liter desicators at the laboratory temperature of 26±2° C. Pure grade esters including allyl acetate, butyl acetate, ethyl acetoacetate, isopropyl acetate and propyl acetate were procured from Merck India Ltd. In each desiccator a 9 cm diameter Whatman No. 1 filter circle was placed; the filter circle acted as evaporating surface for the injected liquids (esters). Required quantity of the ester was drawn from the bottles using 10, 25 or 50 micro litre liquid syringe. There were 6 replicates for each dose with equal number of replicates for untreated control. The exposure period in all cases was 24 hours. […] Insect mortality was assessed after 14 days. Corrected mortality was arrived at based on Abbott's formula (1925).

Sitophilus oryzae [8] = experiment: whole plant or invertebrate
Method: as §3

Tribolium castaneum [9] = experiment: whole plant or invertebrate
Method: as §3

[10] = Rhyzopertha dominica, read-out: Mortality (%) (Mean ± SD)
[11] = Sitophilus oryzae, read-out: Mortality (%) (Mean ± SD)
[12] = Tribolium castaneum, read-out: Mortality (%) (Mean ± SD)

C=CCOC(C)=O [allyl acetate]
LD 50 rat oral (rat): LD 50 rat oral 130 mg/kg
mortality at 25 µg/mL ([1]; 24 hours exposure): 87.9 ± 4.1%
mortality at 50 µg/mL ([1]; 24 hours exposure): 98 ± 1.5%
mortality at 100 µg/mL ([1]; 24 hours exposure): 100%
mortality at 150 µg/mL ([1]; 24 hours exposure): 100%
mortality at 25 µg/mL ([1]; 48 hours exposure): 85.1%
mortality at 50 µg/mL ([1]; 48 hours exposure): 98.9 ± 1.3%
mortality at 100 µg/mL ([1]; 48 hours exposure): 100%
mortality at 150 µg/mL ([1]; 48 hours exposure): 100%
mortality at 25 µg/mL ([1]; 120 hours exposure): 98.8 ± 1.8%
mortality at 50 µg/mL ([1]; 120 hours exposure): 100%
mortality at 100 µg/mL ([1]; 120 hours exposure): 100%
mortality at 150 µg/mL ([1]; 120 hours exposure): 100%
mortality at 25 µg/mL ([2]; 24 hours exposure): 0%
mortality at 50 µg/mL ([2]; 24 hours exposure): 82.6 ± 17.8%
mortality at 100 µg/mL ([2]; 24 hours exposure): 98.4 ± 3.3%
mortality at 150 µg/mL ([2]; 24 hours exposure): 99.2 ± 1.7%
mortality at 25 µg/mL ([2]; 48 hours exposure): 86.5%
mortality at 50 µg/mL ([2]; 48 hours exposure): 100%
mortality at 100 µg/mL ([2]; 48 hours exposure): 100%
mortality at 150 µg/mL ([2]; 48 hours exposure): 100%
mortality at 25 µg/mL ([2]; 120 hours exposure): 51.4 ± 11.6%
mortality at 50 µg/mL ([2]; 120 hours exposure): 73.4 ± 17.7%
mortality at 100 µg/mL ([2]; 120 hours exposure): 97.3 ± 3.2%
mortality at 150 µg/mL ([2]; 120 hours exposure): 100%
mortality at 25 µg/mL ([3]; 24 hours exposure): 99.8 ± 0.3%
mortality at 50 µg/mL ([3]; 24 hours exposure): 100%
mortality at 100 µg/mL ([3]; 24 hours exposure): 100%
mortality at 150 µg/mL ([3]; 24 hours exposure): 100%
mortality at 25 µg/mL ([3]; 48 hours exposure): 99.8%
mortality at 50 µg/mL ([3]; 48 hours exposure): 99.8 ± 0.4%
mortality at 100 µg/mL ([3]; 48 hours exposure): 100%
mortality at 150 µg/mL ([3]; 48 hours exposure): 100%
mortality at 25 µg/mL ([3]; 120 hours exposure): 99.8 ± 0.5%
mortality at 50 µg/mL ([3]; 120 hours exposure): 100%
mortality at 100 µg/mL ([3]; 120 hours exposure): 100%
mortality at 150 µg/mL ([3]; 120 hours exposure): 100%
LD 50 (mg/Liter) (Rhyzopertha dominica [4]): 1.69 (1.30; 2.02) mg/Liter
LD 99 (mg/Liter) (Rhyzopertha dominica [4]): 7.56 (5.81; 11.67) mg/Liter
LD 50 (mg/Liter) (Sitophilus oryzae [5]): 4.08 (3.70; 4.42) mg/Liter
LD 99 (mg/Liter) (Sitophilus oryzae [5]): 12.81 (10.90; 16.15) mg/Liter
LD 50 (mg/Liter) (Tribolium castaneum [6]): 6.14 (5.33; 6.80) mg/Liter
LD 99 (mg/Liter) (Tribolium castaneum [6]): 11.42 (9.85; 14.92) mg/Liter
mortality at 10 µg/mL (Rhyzopertha dominica [7]; [10]): 100%
mortality at 20 µg/mL (Rhyzopertha dominica [7]; [10]): 100%
mortality at 30 µg/mL (Rhyzopertha dominica [7]; [10]): 100%
mortality at 50 µg/mL (Rhyzopertha dominica [7]; [10]): 100%
mortality at 100 µg/mL (Rhyzopertha dominica [7]; [10]): 100%
mortality of the adults (Rhyzopertha dominica [7]; in vivo): 100%
mortality at 10 µg/mL (Sitophilus oryzae [8]; [11]): 92.3 ± 12.7%
mortality at 20 µg/mL (Sitophilus oryzae [8]; [11]): 100%
mortality at 30 µg/mL (Sitophilus oryzae [8]; [11]): 100%
mortality at 50 µg/mL (Sitophilus oryzae [8]; [11]): 100%
mortality at 100 µg/mL (Sitophilus oryzae [8]; [11]): 100%
mortality of the adults (Sitophilus oryzae [8]; in vivo): 100%
mortality at 10 µg/mL (Tribolium castaneum [9]; [12]): 96 ± 3.7%
mortality at 20 µg/mL (Tribolium castaneum [9]; [12]): 100%
mortality at 30 µg/mL (Tribolium castaneum [9]; [12]): 100%
mortality at 50 µg/mL (Tribolium castaneum [9]; [12]): 100%
mortality at 100 µg/mL (Tribolium castaneum [9]; [12]): 100%
mortality of the adults (Tribolium castaneum [9]; in vivo): 100%
